# Source: patent EP0510260A2, “6'-C-alkyl-3-deazaneplanocin A derivative and its preparation process and use” (ASAHI KASEI KOGYO KABUSHIKI KAISHA, priority 1991, dated 1992)
# Assays:
# virus = experiment: Antiviral activity: cytopathic effect (CPE) inhibition in virus-inoculated Vero cells; format: cell-based; conditions: MIC, virus at 100 times TCID50, cultured 36 hours at 37°C, CPE observed microscopically
# Protocol: By partly modifying the testing method reported in Antimicrobial Agents and Chemotherapy, 24(3), 353-361 (1983), antiviral activity was analyzed in the following manner. 200 µℓ of Eagle's minimum essential medium (with 10% fetal calf serum), in which Vero cells (product of Flow General Inc., marketed by Dainippon Pharmaceutical Co., Ltd., available from National Institute of Health) were suspended at the concentration of 3 x 10⁵ cells/mℓ, were cultured in a […] flat bottom plate. Subsequent to dense monolayer culture, the medium was removed and 90 µℓ of Eagle's minimum essential medium (with 3% fetal calf serum) containing a test compound were added. The tissue culture infections dosis 50% (TCID₅₀) had been determined in advance without addition of any drug. The above-prepared culture plate was inoculated with 10 µℓ of a virus solution whose concentration was 100 times higher than TCID₅₀ determined in advance. The cells were cultured for 36 hours at 37°C under 5% CO₂. The cytopathic effect (CPE) was microscopically observed, whereby the minimum virus growth inhibitory concentration (MIC) was determined.
# Vero cells = experiment: Measurement of cytotoxicity by the MTT method; format: cell-based; conditions: cultured 72 hours, ID50 (growth of cells inhibited to 50%)
# Protocol: Added to 100 µℓ of Eagle's minimum essential medium were 100 µℓ of Eagle's minimum essential medium (with 10% fetal calf serum), in which Vero cells were suspended at the concentration of 5 x 10⁴ cells/mℓ as well as a test compound. The resultant mixture was cultured for 72 hours in a […] flat bottom plate. The cytotoxicity of the test compound was then measured by the MTT measuring method reported in J. Immunol. Methods, 65, 55-63 (1983). The cytotoxicity is indicated in terms of the concentration (ID₅₀) which inhibited the growth of cells to 50%.
SMILES,Minimum virus growth inhibitory concen. (virus) [µg/mL],50% cell growth inhibitory concentration (ID50) (Vero cells) [µg/mL]
"CC(O)C1=C[C@@H](n2cnc3c(N)nccc32)[C@H](O)[C@@H]1O (single isomer, unassigned) [6'-c-Methyl-3-deazaneplanocin A, 6'-C-Methyl-3-deazaneplanocin A]",1.0,12.4
Nc1ncnc2c1ncn2[C@@H]1C=C(CO)[C@@H](O)[C@H]1O [Neplanocin A],0.24,
"Nc1nccc2c1ncn2[C@@H]1C=C(CO)[C@@H](O)[C@H]1O [3-Deazaneplanosin A, 3-deazaneplanocin A]",0.24,
